The OligoGym collection
Values joined by “and” are separate entries in the source; they are usually repeats but may differ in a detail not shown here. Equal values may be shown once. After the bases stand the sugars from the 5' end (letter, count) and the backbone: PS all phosphorothioate, else s phosphorothioate and o phosphodiester by linkage. Methylation of C is not given here. e = 2'-O-(2-methoxyethyl) (MOE); k = constrained ethyl (cEt); d = 2'-deoxy (DNA)

Target: SOD1
Details: ASO

Work on “GTCCTTTAATGCTTCCCCAC (sugars e5 d10 e5, PS)” yielded a target mRNA inhibition (HepG2, 4 µM) of 9%.
Work on “GTCGCCCTTCAGCACGC (sugars e2 k2 d9 k2 e2, PS)” yielded a target mRNA inhibition (HepG2, 4 µM) of 72%.
Work on “GTCGCCCTTCAGCACGCA (sugars e5 d8 e5, linkages s1 o3 s9 o2 s2)” yielded a target mRNA inhibition (A431, 0.062 µM) of 10%, a target mRNA inhibition (A431, 0.185 µM) of 11% and a target mRNA inhibition (A431, 0.556 µM) of 11%. For the same sequence, the target mRNA inhibition (A431, 1.667 µM) was 3%, the target mRNA inhibition (A431, 5 µM) was 18% and the target mRNA inhibition (A431, 15 µM) was 4%. The target mRNA inhibition (SH-SY5Y, 0.062 µM) was 13%, the target mRNA inhibition (SH-SY5Y, 0.185 µM) was 4% and the target mRNA inhibition (SH-SY5Y, 0.556 µM) was 5%. The target mRNA inhibition (SH-SY5Y, 1.667 µM) was 40%, the target mRNA inhibition (SH-SY5Y, 5 µM) was 52% and the target mRNA inhibition (SH-SY5Y, 15 µM) was 77%.
In the case of “GTCTCCGCGACTACTTTATA (sugars e5 d10 e5, PS)”, the target mRNA inhibition (HepG2, 4 µM) is reported as 22%.
“GTCTCCTGAGAGTGAGATCA (sugars e5 d10 e5, PS)” showed a target mRNA inhibition (HepG2, 5 µM) of 23%.
For “GTCTGGCAAAATACAGG (sugars e2 k2 d9 k2 e2, PS)”, the target mRNA inhibition (HepG2, 5 µM) was 38%.
“GTGATTTAAGTCTGGCA (sugars e2 k2 d9 k2 e2, PS)” gave a target mRNA inhibition (HepG2, 5 µM) of 69%.
With “GTGCCATACAGGGTTTT (sugars e2 k2 d8 k2 e3, PS)” the target mRNA inhibition (HepG2, 5 µM) was 20%.
“GTGCGGCCAATGATGCAATG (sugars e5 d10 e5, PS)” gave a target mRNA inhibition (HepG2, 5 µM) of 12%.
Sequence “GTTTAATGTTTATCAGG (sugars e2 k2 d9 k2 e2, linkages s1 o3 s9 o1 s2)” has a target mRNA inhibition (A431, 0.12 µM) of 25%, a target mRNA inhibition (A431, 0.6 µM) of 69% and a target mRNA inhibition (A431, 3 µM) of 89%. The target mRNA inhibition (A431, 15 µM) was 95%, the target mRNA inhibition (HepG2, 0.222 µM) was 76% and the target mRNA inhibition (HepG2, 0.667 µM) was 90%. The target mRNA inhibition (HepG2, 2 µM) was 94% and the target mRNA inhibition (HepG2, 6 µM) was 93%.
In the case of “GTTTAATGTTTATCAGGA (sugars e5 d8 e5, linkages s1 o3 s9 o2 s2)”, the target mRNA inhibition (A431, 0.12 µM) is reported as 15%, the target mRNA inhibition (A431, 0.6 µM) is reported as 51% and the target mRNA inhibition (A431, 3 µM) is reported as 68%. It also gave a target mRNA inhibition (A431, 15 µM) of 84%, a target mRNA inhibition (HepG2, 0.222 µM) of 45% and a target mRNA inhibition (HepG2, 0.667 µM) of 73%. For the same sequence, the target mRNA inhibition (HepG2, 2 µM) was 78% and the target mRNA inhibition (HepG2, 6 µM) was 87%.
With “GTTTAATGTTTATCAGGATA (sugars e5 d10 e5, PS)” the target mRNA inhibition (HepG2, 0.1875 µM) was 15%, the target mRNA inhibition (HepG2, 0.75 µM) was 37% and the target mRNA inhibition (HepG2, 3 µM) was 70%. It also gave a target mRNA inhibition (HepG2, 5 µM) of 71% and a target mRNA inhibition (HepG2, 12 µM) of 88%.
“GTTTATTGGGCGATCCC (sugars e2 k2 d9 k2 e2, PS)” showed a target mRNA inhibition (HepG2, 4 µM) of 68%.
“GTTTTATAAAACTATAC (sugars e3 k2 d7 k2 e3, PS)” gave a target mRNA inhibition (HepG2, 3 µM) of 22%.
Sequence “TAAAGTGAGGACCTGCA (sugars e3 k2 d7 k2 e3, PS)” has a target mRNA inhibition (HepG2, 3 µM) of 19%.
With “TAATAAGTGCCATACAG (sugars e2 k2 d9 k2 e2, PS)” the target mRNA inhibition (HepG2, 5 µM) was 30%.
“TAATACCCATCTGTGAT (sugars e3 k2 d7 k2 e3, PS)” showed a target mRNA inhibition (HepG2, 3 µM) of 4%.
With “TAATGCTTCCCCACACC (sugars e3 k2 d7 k2 e3, PS)” the target mRNA inhibition (HepG2, 3 µM) was 52%.
“TAATGTTTATCAGGAT (sugars ekddddddddekekee, linkages s1 o1 s8 o3 s2)” gave a target mRNA inhibition (A431, 0.12 µM) of 1%, a target mRNA inhibition (A431, 0.6 µM) of 9% and a target mRNA inhibition (A431, 3 µM) of 22%. For the same sequence, the target mRNA inhibition (A431, 15 µM) was 46%.
In the case of “TAATGTTTATCAGGATA (sugars e2 k2 d9 k2 e2, PS)”, the target mRNA inhibition (HepG2, 0.1875 µM) is reported as 28%, the target mRNA inhibition (HepG2, 0.75 µM) is reported as 66% and the target mRNA inhibition (HepG2, 3 µM) is reported as 91%. The target mRNA inhibition (HepG2, 4 µM) was 85% and 82% and the target mRNA inhibition (HepG2, 12 µM) was 93% and 98%.
“TACACCACAAGCCAAAC (sugars e2 k2 d9 k2 e2, PS)” was tested, and the target mRNA inhibition (HepG2, 4 µM) was 63%.
Sequence “TACAGCTAGCAGGATAA (sugars e3 k2 d7 k2 e3, PS)” has a target mRNA inhibition (HepG2, 3 µM) of 40%.
Work on “TACAGGTACTTTAAAGC (sugars e2 k2 d9 k2 e2, PS)” yielded a target mRNA inhibition (HepG2, 5 µM) of 26%.
With “TACAGGTCATTGAAACA (sugars e2 k2 d9 k2 e2, PS)” the target mRNA inhibition (HepG2, 5 µM) was 38%.
“TACATCCAAGGGAATGT (sugars e3 k2 d7 k2 e3, PS)” gave a target mRNA inhibition (HepG2, 3 µM) of 30%.
Sequence “TACCCATCTGTGATTTA (sugars e2 k2 d9 k2 e2, PS)” has a target mRNA inhibition (HepG2, 5 µM) of 45%.
Work on “TAGCAGGATAACAGATG (sugars e3 k2 d7 k2 e3, PS)” yielded a target mRNA inhibition (HepG2, 3 µM) of 34%.
Sequence “TAGCCTCATAATAAGTG (sugars e2 k2 d8 k2 e3, PS)” has a target mRNA inhibition (HepG2, 5 µM) of 11%.
Sequence “TATTGGGCGATCCCAAT (sugars e3 k2 d7 k2 e3, PS)” has a target mRNA inhibition (HepG2, 3 µM) of 3%.
For “TCACACAATTACACTTT (sugars e2 k2 d8 k2 e3, PS)”, the target mRNA inhibition (HepG2, 5 µM) was 28%.
For “TCAGACTACATCCAAGG (sugars e3 k2 d7 k2 e3, PS)”, the target mRNA inhibition (HepG2, 0.1875 µM) was 19%, the target mRNA inhibition (HepG2, 0.75 µM) was 51% and the target mRNA inhibition (HepG2, 3 µM) was 57% and 74%. For the same sequence, the target mRNA inhibition (HepG2, 12 µM) was 85%.
For “TCAGCACGCACACGGCCTTC (sugars e5 d10 e5, PS)”, the target mRNA inhibition (HepG2, 0.1875 µM) was 6%, the target mRNA inhibition (HepG2, 0.75 µM) was 12% and the target mRNA inhibition (HepG2, 3 µM) was 51%. For the same sequence, the target mRNA inhibition (HepG2, 4 µM) was 52% and the target mRNA inhibition (HepG2, 12 µM) was 88%.
Sequence “TCAGGATACATTTCTACAGC (sugars e5 d10 e5, linkages s1 o3 s11 o3 s1)” has a target mRNA inhibition (A431, 0.12 µM) of 9%, a target mRNA inhibition (A431, 0.6 µM) of 8% and a target mRNA inhibition (A431, 3 µM) of 21%. For the same sequence, the target mRNA inhibition (A431, 15 µM) was 49%, the target mRNA inhibition (HepG2, 0.222 µM) was 25% and the target mRNA inhibition (HepG2, 0.667 µM) was 50%. For the same sequence, the target mRNA inhibition (HepG2, 2 µM) was 92% and the target mRNA inhibition (HepG2, 6 µM) was 73%.
“TCATGAACATGGAATCCATG (sugars e5 d10 e5, PS)” was tested, and the target mRNA inhibition (HepG2, 5 µM) was 24% and 19%.
“TCCCCACACCTTCACT (sugars ekddddddddekekee, linkages s1 o1 s8 o3 s2)” showed a target mRNA inhibition (A431, 0.12 µM) of 0%, a target mRNA inhibition (A431, 0.6 µM) of 0% and a target mRNA inhibition (A431, 3 µM) of 7%. For the same sequence, the target mRNA inhibition (A431, 15 µM) was 21%, the target mRNA inhibition (HepG2, 0.222 µM) was 16% and the target mRNA inhibition (HepG2, 0.667 µM) was 34%. It also gave a target mRNA inhibition (HepG2, 2 µM) of 58% and a target mRNA inhibition (HepG2, 6 µM) of 80%.
For “TCCCCACACCTTCACT (sugars kekeddddddddekek, linkages s1 o3 s8 o1 s2)”, the target mRNA inhibition (A431, 0.12 µM) was 3%, the target mRNA inhibition (A431, 0.6 µM) was 44% and the target mRNA inhibition (A431, 3 µM) was 2%. It also gave a target mRNA inhibition (A431, 15 µM) of 8%, a target mRNA inhibition (HepG2, 0.222 µM) of 19% and a target mRNA inhibition (HepG2, 0.667 µM) of 9%. For the same sequence, the target mRNA inhibition (HepG2, 2 µM) was 31% and the target mRNA inhibition (HepG2, 6 µM) was 61%.
“TCCTGGTTCCGAGGACTGCA (sugars e5 d10 e5, PS)” was tested, and the target mRNA inhibition (HepG2, 4 µM) was 24%.
With “TCGCCCTTCAGCACGCA (sugars e2 k2 d8 k2 e3, PS)” the target mRNA inhibition (HepG2, 4 µM) was 56% and 55%, the target mRNA inhibition (HepG2, 5 µM) was 53% and 64% and the target mRNA inhibition (HepG2, 12 µM) was 71%.
With “TCGGCCACACCATCTTTGTC (sugars e5 d10 e5, PS)” the target mRNA inhibition (HepG2, 5 µM) was 32% and 28%.
“TCTGAAAAAGTCACACAATT (sugars e5 d10 e5, PS)” showed a target mRNA inhibition (HepG2, 5 µM) of 5%.
For “TCTGCTCGAAATTGATGATG (sugars e5 d10 e5, PS)”, the target mRNA inhibition (HepG2, 4 µM) was 14%.
“TCTGGCAAAATACAGGT (sugars e3 k2 d7 k2 e3, PS)” gave a target mRNA inhibition (HepG2, 3 µM) of 0%.
With “TCTGTGATTTAAGTCTG (sugars e2 k2 d8 k2 e3, PS)” the target mRNA inhibition (HepG2, 5 µM) was 49%.
“TGAAAAAGTCACACAATTAC (sugars e5 d10 e5, PS)” gave a target mRNA inhibition (HepG2, 5 µM) of 0%.
“TGAGAGTGAGATCACAGAAT (sugars e5 d10 e5, PS)” was tested, and the target mRNA inhibition (HepG2, 5 µM) was 18%.
“TGATTTAAGTCTGGCAA (sugars e2 k2 d9 k2 e2, PS)” showed a target mRNA inhibition (HepG2, 5 µM) of 52%.
For “TGCTCGAAATTGATGATGCC (sugars e5 d10 e5, PS)”, the target mRNA inhibition (HepG2, 4 µM) was 20%.
Work on “TGCTTCCCCACACCTTC (sugars e3 k2 d7 k2 e3, PS)” yielded a target mRNA inhibition (HepG2, 3 µM) of 43%.
For “TGGATAGAGGATTAAAG (sugars e3 k2 d7 k2 e3, PS)”, the target mRNA inhibition (HepG2, 3 µM) was 23%.
With “TGGGCCGTCGCCCTTCAGCA (sugars e5 d10 e5, PS)” the target mRNA inhibition (HepG2, 4 µM) was 12%.
“TGGGCGATCCCAATTAC (sugars e2 k2 d9 k2 e2, PS)” gave a target mRNA inhibition (HepG2, 4 µM) of 46%.
